According to ChEMBL document CHEMBL3734719, “Discovery of highly potent triazoleantifungal agents with piperidine-oxadiazole side chains” (2015):
Values after ≈ are worked out from the molar mass of the structure shown. Active and inactive are the calls of the source. No cut-off for these calls is given here.

Key:
Candida albicans [1] = experiment: Antifungal activity against Candida albicans after 48 hrs by spectrophotometry; type: functional
Nannizzia gypsea = experiment: Antifungal activity against Microsporum gypseum after 48 hrs by spectrophotometry; type: functional
Cryptococcus neoformans = experiment: Antifungal activity against Cryptococcus neoformans after 48 hrs by spectrophotometry; type: functional
Nakaseomyces glabratus = experiment: Antifungal activity against Candida glabrata after 48 hrs by spectrophotometry; type: functional
Aspergillus fumigatus = experiment: Antifungal activity against Aspergillus fumigatus after 48 hrs by spectrophotometry; type: functional
Trichophyton rubrum = experiment: Antifungal activity against Trichophyton rubrum after 48 hrs by spectrophotometry; type: functional
Candida parapsilosis = experiment: Antifungal activity against Candida parapsilosis after 48 hrs by spectrophotometry; type: functional; conditions: Lodderomyces parapsilosis
Candida albicans [2] = experiment: Antifungal activity against Candida albicans SC5314 assessed as inhibition of yeast to hypha transisition at >1 ug/ml after 3 hrs measured as increase in pseudohyphal cells; type: functional, organism-based
Candida albicans [3] = experiment: Antifungal activity against fluconazole-resistant Candida albicans 805 after 48 hrs by spectrophotometry; type: functional; conditions: Candida albicans, 805, 48 h
Candida albicans [4] = experiment: Antifungal activity against Candida albicans SC5314 assessed as inhibition of yeast to hypha transisition at >1 ug/ml after 3 hrs measured as increase in yeast cells; type: functional, organism-based
Caenorhabditis elegans = experiment: Growth inhibition of Caenorhabditis elegans at 1 to 160 ug/ml after 6 days; type: functional, organism-based
Candida albicans [5] = experiment: Antifungal activity against Candida albicans after 48 hrs by spectrophotometry relative to fluconazole; type: functional
Candida albicans [6] = experiment: Antifungal activity against fluconazole-resistant Candida albicans 103 after 48 hrs by spectrophotometry; type: functional; conditions: Candida albicans, 103, 48 h
Candida albicans [7] = experiment: Antifungal activity against fluconazole-resistant Candida albicans 0710922 after 48 hrs by spectrophotometry; type: functional; conditions: Candida albicans, 0710922, 48 h
Candida albicans [8] = experiment: Antifungal activity against Candida albicans SC5314 assessed as inhibition of yeast to hypha transisition at >1 ug/ml after 3 hrs measured as decrease in hyphae; type: functional, organism-based

Row | Compound | MIC80 (Candida albicans [1]) | MIC80 (Nannizzia gypsea) | MIC80 (Cryptococcus neoformans) | MIC80 (Nakaseomyces glabratus) | MIC80 (Aspergillus fumigatus) | MIC80 (Trichophyton rubrum) | MIC80 (Candida parapsilosis) | inhibition (Candida albicans [2]) | MIC50 (Candida albicans [3]) | MIC80 (Candida albicans [3]) | inhibition (Candida albicans [4]) | inhibition (Caenorhabditis elegans) | Ratio (Candida albicans [5]) | MIC50 (Candida albicans [6]) | MIC80 (Candida albicans [6]) | MIC50 (Candida albicans [7]) | MIC80 (Candida albicans [7]) | inhibition (Candida albicans [8])
1 | OC(CN1CCC(c2nnc(-c3ccccc3)o2)CC1)(Cn1cncn1)c1ccc(F)cc1F (stereo not drawn) | 0.125 µg/mL (≈ 0.268 µM) | 1 µg/mL (≈ 2.14 µM) | 0.25 µg/mL (≈ 0.536 µM) | 2 µg/mL (≈ 4.29 µM) | 2 µg/mL (≈ 4.29 µM) | 1 µg/mL (≈ 2.14 µM) | 0.5 µg/mL (≈ 1.07 µM) | – | – | – | – | – | – | – | – | – | – | –
2 | OC(CN1CCC(c2nc(-c3ccsc3)no2)CC1)(Cn1cncn1)c1ccc(F)cc1F (stereo not drawn) | 0.5 µg/mL (≈ 1.06 µM) | 4 µg/mL (≈ 8.47 µM) | 2 µg/mL (≈ 4.23 µM) | 4 µg/mL (≈ 8.47 µM) | 4 µg/mL (≈ 8.47 µM) | 4 µg/mL (≈ 8.47 µM) | 4 µg/mL (≈ 8.47 µM) | – | – | – | – | – | – | – | – | – | – | –
3 | OC(CN1CCC(c2nnc(-c3ccccc3F)o2)CC1)(Cn1cncn1)c1ccc(F)cc1F (stereo not drawn) | 0.125 µg/mL (≈ 0.258 µM) | 2 µg/mL (≈ 4.13 µM) | ≤ 0.125 µg/mL | 1 µg/mL (≈ 2.06 µM) | 1 µg/mL (≈ 2.06 µM) | 2 µg/mL (≈ 4.13 µM) | 0.5 µg/mL (≈ 1.03 µM) | – | – | – | – | – | – | – | – | – | – | –
4 | CCc1ccc(-c2nnc(C3CCN(CC(O)(Cn4cncn4)c4ccc(F)cc4F)CC3)o2)cc1 (stereo not drawn) | 0.5 µg/mL (≈ 1.01 µM) | 4 µg/mL (≈ 8.09 µM) | 2 µg/mL (≈ 4.04 µM) | 4 µg/mL (≈ 8.09 µM) | 4 µg/mL (≈ 8.09 µM) | 4 µg/mL (≈ 8.09 µM) | 2 µg/mL (≈ 4.04 µM) | – | – | – | – | – | – | – | – | – | – | –
5 | OC(CN1CCC(c2nc(-c3ccc(C(F)(F)F)cc3)no2)CC1)(Cn1cncn1)c1ccc(F)cc1F (stereo not drawn) | 0.5 µg/mL (≈ 0.935 µM) | 2 µg/mL (≈ 3.74 µM) | 2 µg/mL (≈ 3.74 µM) | 2 µg/mL (≈ 3.74 µM) | 2 µg/mL (≈ 3.74 µM) | 4 µg/mL (≈ 7.48 µM) | 4 µg/mL (≈ 7.48 µM) | – | – | – | – | – | – | – | – | – | – | –
6 | OC(CN1CCC(c2nc(-c3cccnc3)no2)CC1)(Cn1cncn1)c1ccc(F)cc1F (stereo not drawn) | 0.063 µg/mL (≈ 0.135 µM) | 0.5 µg/mL (≈ 1.07 µM) | 0.125 µg/mL (≈ 0.267 µM) | 0.125 µg/mL (≈ 0.267 µM) | 0.125 µg/mL (≈ 0.267 µM) | 1 µg/mL (≈ 2.14 µM) | 0.25 µg/mL (≈ 0.535 µM) | – | – | – | – | – | – | – | – | – | – | –
7 | OC(CN1CCC(c2nnc(-c3ccc(C(F)(F)F)cc3)o2)CC1)(Cn1cncn1)c1ccc(F)cc1F (stereo not drawn) | 0.031 µg/mL (≈ 0.058 µM) | 1 µg/mL (≈ 1.87 µM) | 0.25 µg/mL (≈ 0.468 µM) | 2 µg/mL (≈ 3.74 µM) | 2 µg/mL (≈ 3.74 µM) | 1 µg/mL (≈ 1.87 µM) | 0.5 µg/mL (≈ 0.935 µM) | Active | 0.0625 µg/mL (≈ 0.117 µM) | 16 µg/mL (≈ 29.9 µM) | Active | inactive | 8 | 0.25 µg/mL (≈ 0.468 µM) | 8 µg/mL (≈ 15 µM) | 0.125 µg/mL (≈ 0.234 µM) | 16 µg/mL (≈ 29.9 µM) | Active
8 | Cc1cccc(-c2nnc(C3CCN(CC(O)(Cn4cncn4)c4ccc(F)cc4F)CC3)o2)c1 (stereo not drawn) | 0.25 µg/mL (≈ 0.52 µM) | 0.5 µg/mL (≈ 1.04 µM) | 1 µg/mL (≈ 2.08 µM) | 2 µg/mL (≈ 4.16 µM) | 2 µg/mL (≈ 4.16 µM) | 2 µg/mL (≈ 4.16 µM) | 2 µg/mL (≈ 4.16 µM) | – | – | – | – | – | – | – | – | – | – | –
9 | COc1cccc(-c2noc(C3CCN(CC(O)(Cn4cncn4)c4ccc(F)cc4F)CC3)n2)c1 (stereo not drawn) | 1 µg/mL (≈ 2.01 µM) | 4 µg/mL (≈ 8.06 µM) | 2 µg/mL (≈ 4.03 µM) | 4 µg/mL (≈ 8.06 µM) | 4 µg/mL (≈ 8.06 µM) | 4 µg/mL (≈ 8.06 µM) | 4 µg/mL (≈ 8.06 µM) | – | – | – | – | – | – | – | – | – | – | –
10 | OC(CN1CCC(c2nc(-c3cccs3)no2)CC1)(Cn1cncn1)c1ccc(F)cc1F (stereo not drawn) | 0.063 µg/mL (≈ 0.133 µM) | 2 µg/mL (≈ 4.23 µM) | 1 µg/mL (≈ 2.12 µM) | 2 µg/mL (≈ 4.23 µM) | 2 µg/mL (≈ 4.23 µM) | 1 µg/mL (≈ 2.12 µM) | 2 µg/mL (≈ 4.23 µM) | – | – | – | – | – | – | – | – | – | – | –
11 | OC(CN1CCC(c2nnc(-c3c(F)cccc3F)o2)CC1)(Cn1cncn1)c1ccc(F)cc1F (stereo not drawn) | 0.063 µg/mL (≈ 0.125 µM) | 2 µg/mL (≈ 3.98 µM) | ≤ 0.125 µg/mL | 0.5 µg/mL (≈ 0.995 µM) | 0.5 µg/mL (≈ 0.995 µM) | 2 µg/mL (≈ 3.98 µM) | 0.5 µg/mL (≈ 0.995 µM) | – | – | – | – | – | – | – | – | – | – | –
12 | Cc1ccc(-c2noc(C3CCN(CC(O)(Cn4cncn4)c4ccc(F)cc4F)CC3)n2)cc1 (stereo not drawn) | 0.5 µg/mL (≈ 1.04 µM) | 8 µg/mL (≈ 16.6 µM) | 4 µg/mL (≈ 8.32 µM) | 4 µg/mL (≈ 8.32 µM) | 4 µg/mL (≈ 8.32 µM) | 2 µg/mL (≈ 4.16 µM) | 2 µg/mL (≈ 4.16 µM) | – | – | – | – | – | – | – | – | – | – | –
13 | COc1ccc(-c2noc(C3CCN(CC(O)(Cn4cncn4)c4ccc(F)cc4F)CC3)n2)cc1 (stereo not drawn) | 0.016 µg/mL (≈ 0.0322 µM) | 2 µg/mL (≈ 4.03 µM) | 0.25 µg/mL (≈ 0.504 µM) | 1 µg/mL (≈ 2.01 µM) | 1 µg/mL (≈ 2.01 µM) | 0.5 µg/mL (≈ 1.01 µM) | 0.25 µg/mL (≈ 0.504 µM) | Active | 0.125 µg/mL (≈ 0.252 µM) | 8 µg/mL (≈ 16.1 µM) | Active | inactive | 8 | 0.25 µg/mL (≈ 0.504 µM) | 4 µg/mL (≈ 8.06 µM) | 0.125 µg/mL (≈ 0.252 µM) | 16 µg/mL (≈ 32.2 µM) | Active
